One experiment concerns the target SARS−CoV−2 Spike RBD (Severe acute respiratory syndrome coronavirus 2, UniProt P0DTC2). The experiment in a line: biochemical. It is filed as binding.
Experiment [1] deals with SARS-CoV-2 Spike receptor-binding domain (residues N334-P527) (SARS-CoV-2 (isolate Wuhan-Hu-1)) (UniProt P0DTC2). The experiment in a line: MST.

Here are results for four compounds from PMC8304516, “A Fungal Defensin Targets the SARS−CoV−2 Spike Receptor−Binding Domain” (Journal of Fungi, 2021).

Read-outs that look alike come from different tables or passages of the source. Bridge positions count the residues as written; N and C are the ends. Peptide text beside a SMILES is read from it.

By Kd is commonly meant the free concentration of one partner at which half of the binding sites on the other are occupied at equilibrium, for simple one-to-one binding. On SARS−CoV−2 Spike RBD (KD, SD), `CC[C@H](C)[C@@H]1NC(=O)[C@H](CO)NC(=O)[C@H](CC(C)C)NC(=O)[C@@H]2CSSC[C@@H](C(=O)NCC(=O)N[C@@H](CCCCN)C(=O)N[C@@H](CCC(N)=O)C(=O)O)NC(=O)[C@H]([C@@H](C)O)NC(=O)[C@@H]3CSSC[C@H](NC(=O)[C@H](CCC(=O)O)NC(=O)[C@H](CC(N)=O)NC(=O)[C@H](CCCNC(=N)N)NC(=O)[C@H](CC(N)=O)NC(=O)[C@H](Cc4ccccc4)NC(=O)[C@@H]4CCCN4C(=O)[C@@H](NC(=O)CNC(=O)[C@H](Cc4ccccc4)NC(=O)CN)CSSC[C@H](NC(=O)[C@H](Cc4ccccc4)NC(=O)CNC(=O)[C@H](Cc4ccccc4)NC(=O)[C@H](CCCCN)NC(=O)[C@H](CCCNC(=N)N)NC(=O)CNC1=O)C(=O)N[C@@H](C)C(=O)NCC(=O)N1CCC[C@H]1C(=O)N[C@@H](CC(C)C)C(=O)N[C@@H](CCCNC(=N)N)C(=O)N[C@@H](C)C(=O)N[C@@H]([C@@H](C)O)C(=O)N3)C(=O)N[C@@H](Cc1c[nH]cn1)C(=O)N[C@@H](C)C(=O)N[C@@H](Cc1c[nH]cn1)C(=O)N2` [E8R] (H-GFGCPFNRNECHAHCLSIGRKFGFCAGPLRATCTCGKQ-OH; disulfide 4-25, 11-33, 15-35) displayed a Kd of 720 ± 220 nM.
The same measure, in the same setting: the same measure for `CC[C@H](C)[C@@H]1NC(=O)[C@H](CO)NC(=O)[C@H](CC(C)C)NC(=O)[C@@H]2CSSC[C@@H](C(=O)NCC(=O)N[C@@H](CCCCN)C(=O)N[C@@H](CCC(N)=O)C(=O)O)NC(=O)[C@H]([C@@H](C)O)NC(=O)[C@@H]3CSSC[C@H](NC(=O)[C@H](CCC(=O)O)NC(=O)[C@H](CC(N)=O)NC(=O)[C@H](CCC(=O)O)NC(=O)[C@H](CC(N)=O)NC(=O)[C@H](Cc4ccccc4)NC(=O)[C@@H]4CCCN4C(=O)[C@@H](NC(=O)CNC(=O)[C@H](Cc4ccccc4)NC(=O)CN)CSSC[C@H](NC(=O)[C@H](Cc4ccccc4)NC(=O)CNC(=O)[C@H](Cc4ccccc4)NC(=O)[C@H](CCCCN)NC(=O)[C@H](CCCNC(=N)N)NC(=O)CNC1=O)C(=O)N[C@@H](C)C(=O)NCC(=O)N1CCC[C@H]1C(=O)N[C@@H](CC(C)C)C(=O)N[C@@H](CCCNC(=N)N)C(=O)N[C@@H](C)C(=O)N[C@@H]([C@@H](C)O)C(=O)N3)C(=O)N[C@@H](Cc1c[nH]cn1)C(=O)N[C@@H](C)C(=O)N[C@@H](Cc1c[nH]cn1)C(=O)N2` [micasin] (H-GFGCPFNENECHAHCLSIGRKFGFCAGPLRATCTCGKQ-OH; disulfide 4-25, 11-33, 15-35): 5040 ± 960 nM.
Regarding `CC[C@H](C)[C@@H]1NC(=O)[C@H](CO)NC(=O)[C@H](CC(C)C)NC(=O)[C@@H]2CSSC[C@@H](C(=O)NCC(=O)N[C@@H](CCCCN)C(=O)N[C@@H](CCC(N)=O)C(=O)O)NC(=O)[C@H]([C@@H](C)O)NC(=O)[C@@H]3CSSC[C@H](NC(=O)[C@H](CCC(=O)O)NC(=O)[C@H](CC(N)=O)NC(=O)[C@H](CCCNC(=N)N)NC(=O)[C@H](CC(N)=O)NC(=O)[C@H](Cc4ccccc4)NC(=O)[C@@H]4CCCN4C(=O)[C@@H](NC(=O)CNC(=O)[C@H](Cc4ccccc4)NC(=O)CN)CSSC[C@H](NC(=O)[C@H](Cc4ccccc4)NC(=O)CNC(=O)[C@H](Cc4ccccc4)NC(=O)[C@H](CCCCN)NC(=O)[C@H](CCCNC(=N)N)NC(=O)CNC1=O)C(=O)N[C@@H](C)C(=O)NCC(=O)N1CCC[C@H]1C(=O)N[C@@H](CC(C)C)C(=O)N[C@@H](CCCNC(=N)N)C(=O)N[C@@H](C)C(=O)N[C@@H]([C@@H](C)O)C(=O)N3)C(=O)N[C@@H](Cc1c[nH]cn1)C(=O)N[C@@H](C)C(=O)N[C@@H](Cc1c[nH]cn1)C(=O)N2` [rE8R] (H-GFGCPFNRNECHAHCLSIGRKFGFCAGPLRATCTCGKQ-OH; disulfide 4-25, 11-33, 15-35), the Kd on SARS−CoV−2 Spike RBD (n = 2, read-out: KD) is 1920 nM.
recombinant micasin E8K (peptide) displayed a Kd in experiment [1] of 1900 nM.
